Reference: PubChem BioAssay (NCI)
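Five compound concentrations were applied to cells in 96-well plates for 48 hours; endpoints were derived by simple linear interpolation of the resulting dose-response curve. TGI is the concentration that stops growth completely.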

How the values were obtained:
Experiment in all cases: growth of human tumour cells (NCI), 48 h
DMS 273 small cell lung = system: DMS 273 small cell lung
OVCAR-5 ovarian = system: OVCAR-5 ovarian
U251 CNS = system: U251 CNS
HCT-15 colon = system: HCT-15 colon
DU-145 prostate = system: DU-145 prostate
UO-31 renal = system: UO-31 renal
SF-268 CNS = system: SF-268 CNS
LXFL 529 NSCLC = system: LXFL 529 NSCLC
COLO 205 colon = system: COLO 205 colon
HOP-18 NSCLC = system: HOP-18 NSCLC

Row | Compound | TGI (DMS 273 small cell lung) [µM] | TGI (OVCAR-5 ovarian) [µM] | TGI (U251 CNS) [µM] | TGI (HCT-15 colon) [µM] | TGI (DU-145 prostate) [µM] | TGI (UO-31 renal) [µM] | TGI (SF-268 CNS) [µM] | TGI (LXFL 529 NSCLC) [µM] | TGI (COLO 205 colon) [µM] | TGI (HOP-18 NSCLC) [µM]
1 | CN/N=C(/CCN1CCCC1)CC(c1ccccc1)c1c(O)c2ccccc2oc1=O (stereo not given) | > 100 | > 100 | > 100 | > 100 | > 100 | > 100 | > 100 | > 100 | > 91.4 | > 100
2 | COc1ccc(C(C)c2cc3c(cc2OC)OCO3)cc1 (stereo not given) | 1.29 | > 100 | > 100 | 13.5 | > 21.9 | > 100 | > 56.2 | > 42.7 | 0.927 | > 100
3 | C[N+](C)(C)CC1CCCC(C[N+](C)(C)C)C1=O (stereo not given) | 10.1 | 7.73 | 10.3 | 0.874 | 16.7 | 7.68 | 55.9 | 0.392 | 0.923 | 1
